This is an account of results in ChEMBL document CHEMBL1130906, “Actinomycin D, C2 and VII, inhibitors of Grb2-SHC interaction produced by Streptomyces” (Bioorg Med Chem Lett, 1998).

Numbered stars: 1 amine (or outer) side, 2 acyl side, 3 side chain; on linkers, the order of the positions; unused ones are H or OH. Bridge positions count the residues as written; N and C are the ends. Square brackets hold non-standard residues; d marks the D form. Peptide text beside a SMILES is read from it. I, II: the chains in the order shown. Actinocin(1to9) = Cc1c2oc3c(C)ccc(C(=O)[*:2])c3nc-2c(C(=O)[*:1])c(N)c1=O; Actinocin(9to1) = Cc1c2oc3c(C)ccc(C(=O)[*:1])c3nc-2c(C(=O)[*:2])c(N)c1=O; NMeV = CN[CH](C(=O)O)C(C)C; Sar = CNCC(=O)O

For this assay, the target named is Growth factor receptor-bound protein 2 (Homo sapiens, UniProt P62993). The assay is described as follows: Inhibition of GST-Grb2 Tyrosine kinase SH2 domain binding to [3H]labeled-phosphopeptide (Ac-SpYVNK-NH-C(O)-CH2CH2H3).
Growth factor receptor-bound protein 2, sequence (P62993 whole entry, the tested form may be a part): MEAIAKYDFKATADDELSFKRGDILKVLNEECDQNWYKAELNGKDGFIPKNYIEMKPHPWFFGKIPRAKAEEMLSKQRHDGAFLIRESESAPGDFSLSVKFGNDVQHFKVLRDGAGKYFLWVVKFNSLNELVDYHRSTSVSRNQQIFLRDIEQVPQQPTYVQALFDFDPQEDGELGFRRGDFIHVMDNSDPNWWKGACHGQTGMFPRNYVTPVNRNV
What is called IC50 is the concentration needed to halve the response being measured. `CCC(C)C1NC(=O)C(NC(=O)c2c3nc4c(C(=O)NC5C(=O)NC(C(C)CC)C(=O)N6CCCC6C(=O)N(C)CC(=O)N(C)C(C(C)C)C(=O)OC5C)ccc(C)c4oc-3c(C)c(=O)c2N)C(C)OC(=O)C(C(C)C)N(C)C(=O)CN(C)C(=O)C2CCCN2C1=O` (stereo not drawn) (I: TIP[Sar][NMeV] / II: TIP[Sar][NMeV]; ester I:1-I:C, II:1-II:C; linker I:N-II:N via Actinocin(1to9); configuration not given here) showed a half-maximal inhibitory concentration (IC50) of 7.6 µM.

In the case of `CC[C@H](C)[C@@H]1NC(=O)[C@@H](NC(=O)c2ccc(C)c3oc4c(C)c(=O)c(N)c(C(=O)N[C@@H]5C(=O)N[C@@H](C(C)C)C(=O)N6CCC[C@H]6C(=O)N(C)CC(=O)N(C)[C@@H](C(C)C)C(=O)O[C@@H]5C)c-4nc23)[C@@H](C)OC(=O)[C@H](C(C)C)N(C)C(=O)CN(C)C(=O)[C@@H]2CCCN2C1=O` (I: TIP[Sar][NMeV] / II: TVP[Sar][NMeV]; ester I:1-I:C, II:1-II:C; linker I:N-II:N via Actinocin(9to1)), the IC50 is 5.9 µM.

The compound `Cc1c2oc3c(C)ccc(C(=O)N[C@@H]4C(=O)N[C@H](C(C)C)C(=O)N5CCC[C@H]5C(=O)N(C)CC(=O)N(C)[C@@H](C(C)C)C(=O)O[C@@H]4C)c3nc-2c(C(=O)N[C@@H]2C(=O)N[C@H](C(C)C)C(=O)N3CCC[C@H]3C(=O)N(C)CC(=O)N(C)[C@@H](C(C)C)C(=O)O[C@@H]2C)c(N)c1=O` [DACTINOMYCIN] (I: T[dV]P[Sar][NMeV] / II: T[dV]P[Sar][NMeV]; ester I:1-I:C, II:1-II:C; linker I:N-II:N via Actinocin(9to1)) displayed a half-inhibitory concentration (IC50) of 5 µM.
